Assay results published in US20190022225A1, “PROTOCOL FOR INCREASING LIFE EXPECTANCY IN A TEST SUBJECT” (Mayo Foundation for Medical Education and Research, priority 2015, published 2019).

Tests used:
[1] = tested on: 3MR or INK-ATTAC mice exposed to cigarette smoke; assay: Cigarette smoke exposure model (COPD), oxygen saturation; type: in vivo, mouse; conditions: after 2 months of cigarette smoke exposure
Description: Six week-old 3MR (n=35) or INK-ATTAC (n=35) mice were chronically exposed to cigarette smoke generated from a Teague TE-10 system, an automatically-controlled cigarette smoking machine that produces a combination of side-stream and mainstream cigarette smoke in a chamber, which is transported to a collecting and mixing chamber where varying amounts of air is mixed with the smoke mixture. […] Mice received a total of 6 hours of cigarette smoke exposure per day, 5 days a week for 6 months. Each lighted cigarette (3R4F research cigarettes containing 10.9 mg of total particulate matter (TPM), 9.4 mg of tar, and 0.726 mg of nicotine, and 11.9 mg carbon monoxide per cigarette [University of Kentucky, Lexington, Ky.]) was puffed for 2 seconds and once every minute for a total of 8 puffs, with the flow rate of 1.05 L/min, to provide a standard puff of 35 cm^3. The smoke machine was adjusted to produce a mixture of side stream smoke (89%) and mainstream smoke (11%) by smoldering 2 cigarettes at one time. The smoke chamber atmosphere was monitored for total suspended particulates (80-120 mg/m^3) and carbon monoxide (350 ppm). Beginning at day 7, (10) INK-ATTAC and (10) 3MR mice were treated with AP20187 (3×per week) or gancyclovir (5 consecutive days of treatment followed by 16 days off drug, repeated until the end of the experiment), respectively. An equal number of mice received the corresponding vehicle. The remaining 30 mice (15 INK-ATTAC and 15 3MR) were evenly split with 5 of each genetically modified strain placed into three different treatment groups. One group (n=10) received Nutlin-3A (25 mg/kg dissolved in 10% DMSO/3% Tween-20 in PBS, treated 14 days consecutively followed by 14 days off drug, repeated until the end of the experiment). One group (n=10) received ABT-263 (Navitoclax) (100 mg/kg dissolved in 15% DMSO/5% Tween-20, treated 7 days consecutively followed by 14 days off drug, repeated until the end of the experiment), and the last group (n=10) received only the vehicle used for ABT-263 (15% DMSO/5% Tween-20), following the same treatment regimen as ABT-263.
After two months of cigarette smoke exposure, lung function was assessed by monitoring oxygen saturation using the MouseSTAT PhysioSuite pulse oximeter (Kent Scientific). Animals were anesthetized with isoflurane (1.5%) and the toe clip was applied. Mice were monitored for 30 seconds and the average peripheral capillary oxygen saturation (SpO2) measurement over this duration was calculated.

[2] = tested on: non-senescent Primary Renal Cortical Cells (renal epithelial cells); assay: CellTiter-Glo cell viability assay, non-senescent renal epithelial cells; type: cell-based; conditions: 72 h, 3 days
Description: (§1) To determine whether ABT-263 is selectively toxic to senescent cells compared to non-senescent cells, a cell viability assay was used to assess cell survival following treatment with ABT-263. IMR90 cells (human primary lung fibroblasts (IMR90) (IMR-90 (ATCC® CCL-186™, Mannassas, Va.) were seeded in six well plates, and cells were induced to senescence with 10 Gy of ionizing radiation (IR) (Day 0). The media was refreshed every 3 days. The senescent phenotype is allowed to develop for 7 days at which point a cell count was made to determine the baseline number of cells followed by seeding into 96-well plates. On day 8, the senescent cells (irradiated) and the non-senescent cells (the non-radiated cells), were exposed to serial dilutions of ABT-263 for a period of 3 days. ABT-263 concentrations ranged from 0.5 nM to 3 μM. Each condition was seeded in triplicate.
(§2) After three days of treatment (Day 11), cells were assayed for cell survival using the commercially available CellTiter-Glo® (CTG) Luminescent Cell Viability Assay (Promega Corporation, Madison, Wis.). The assay determines the number of viable cells in culture based on the quantitation of ATP present which is an indicator of metabolically active cells.
(§3) The methods of Example 7 were repeated in other cell strains. […]

[3] = tested on: senescent Primary Renal Cortical Cells (renal epithelial cells); assay: CellTiter-Glo cell viability assay, senescent renal epithelial cells; type: cell-based; conditions: 72 h, 3 days
Description: as §1, §2, §3

[4] = tested on: senescent (irradiated) IMR90 cells; assay: CellTiter-Glo cell viability assay, senescent IMR90; type: cell-based, human
Description: as §1, §2
(§4) The experiments performed for assessing the effect of these other Bcl-2 inhibitors were performed essentially as described in Example 7. Cells were exposed to ABT-199 at serial dilution concentrations ranging from 15 nM to 100 μM (FIGS. 26 and 27). Cells were exposed to Obatoclax at concentrations ranging from 1.4 nM to 9 μM (FIG. 28).
(§5) The effect of ABT-263 in combination with the Akt inhibitor MK-2206 was tested for selective toxicity of senescent cells compared to non-senescent cells in IMR90 cells. The methods of Example 7 were repeated except that cell cultures were exposed to 10 nM MK-2206 (Selleckem, Cat# S1078) in addition to serial dilutions of ABT-263.

[5] = tested on: senescent (irradiated) IMR90 cells; assay: Cell counting assay, ABT-263 on senescent IMR90; type: cell-based, human; conditions: 3 μM, 24 hours
Description: (§6) To determine whether ABT-263 is selectively toxic to senescent cells compared to non-senescent cells, a cell counting assay was used to determine cell survival following treatment with ABT-263. […] Each condition was seeded in three wells and counted independently. Cells were counted after a 24 hour exposure to ABT-263 (or control culture).

[6] = tested on: senescent HCA2 foreskin fibroblast cells; assay: CellTiter-Glo cell viability assay, senescent HCA2; type: cell-based; conditions: 72 h; HCA2, 3 days
Description: as §1, §2, §3

[7] = tested on: non-senescent HCA2 foreskin fibroblast cells; assay: CellTiter-Glo cell viability assay, non-senescent HCA2; type: cell-based; conditions: 72 h; HCA2, 3 days; not toxic up to highest concentration
Description: as §1, §2, §3

[8] = tested on: non-senescent IMR90 cells; assay: CellTiter-Glo cell viability assay, non-senescent IMR90; type: cell-based; conditions: Homo sapiens, IMR-90, 72 h; IMR90, 3 days, CellTiter-Glo; read-out: IC50 on non-senescent cells
Description: as §1, §2, §4, §5

[9] = tested on: senescent (IMR90 Sen(IR)) and non-senescent (IMR90 NS) cells; assay: Senescent cell killing in presence or absence of pan-caspase inhibitor Q-VD-OPh (CellTiter-Glo); type: cell-based, human
Description: After senescence was established, cells were re-seeded into 96 well plates. […] At the end of the assay time period, cells were counted. Each condition was seeded in three plate wells and counted independently. […] Cell survival was determined using the commercially available CellTiter-Glo® Luminescent Cell Viability Assay (Promega Corporation, Madison, Wis.). The assay determines the number of viable cells in culture based on the quantitation of ATP present which is an indicator of metabolically active cells.
After senescence was established, cells were re-seeded into 96 well plates. […] At the end of the assay time period, cells were counted. Each condition was seeded in three plate wells and counted independently. […] Cell survival was determined using CellTiter-Glo® Luminescent Cell Viability Assay (Promega Corporation, Madison, Wis.). The assay determines the number of viable cells in culture based on the quantitation of ATP present which is an indicator of metabolically active cells.

[10] = tested on: paclitaxel treated p16-3MR mice; assay: Chemotherapy related side effects: voluntary exercise (wheel counts) after paclitaxel in p16-3MR mice; type: in vivo, mouse; conditions: ABT-263 100 mg/kg ip daily 7 days; ganciclovir 25 mg/kg ip daily 3 days
Description: ABT-263 (100 mg/kg) was administered intraperitoneally daily for seven days after paclitaxel administration. Two days after the last dose of ABT-263, all groups of animals were housed in metabolic cages (promethion, sable systems international, Las Vegas, Nev.) to monitor voluntary exercise as determined by wheel counts. Data were collected and analyzed two days later. Clearance of senescent cells by ABT-263 and ganciclovir restored approximately 70% of wheel count reduction caused by chemotherapy treatment.

[11] = tested on: non-senescent IMR90 cells; assay: Cell counting assay, ABT-263 on non-senescent IMR90; type: cell-based, human; conditions: 3 μM, 24 hours
Description: as §6

With `CC1(C)CCC(c2ccc(Cl)cc2)=C(CN2CCN(c3ccc(C(=O)NS(=O)(=O)c4ccc(N[C@H](CCN5CCOCC5)CSc5ccccc5)c(S(=O)(=O)C(F)(F)F)c4)cc3)CC2)C1` [ABT-263, 4-[4-[[2-(4-chlorophenyl)-5,5-dimethylcyclohexen-1-yl]methyl]piperazin-1-yl]-N-[4-[[(2R)-4-morpholin-4-yl-1-phenylsulfanylbutan-2-yl]amino]-3-(trifluoromethylsulfonyl)phenyl]sulfonylbenzamide] the “SpO2 levels versus untreated controls” value [1] was “statistically significant increases”, the IC50 [2] was 430 nM and the IC50 [3] was 25 nM. The IC50 ([4]; Homo sapiens, IMR-90, 72 h, IMR90, 3 days, CellTiter-Glo, read-out: IC50 on senescent cells) was 140 nM, the “in vitro theoretical therapeutic index” value ([4]; IMR90, non-senescent versus senescent IC50) was 17 and the “cell counts as percent of counts before treatment” value [5] was 28%. For the same molecule, the IC50 [6] was 410 nM, the IC50 [7] was > 3000 nM and the IC50 [8] was 2400 nM. For the same molecule, the “selective killing of senescent cells” value ([9]; IMR90, 3 days) was “selectively kills senescent cells”, the “percent of surviving senescent cells in the presence of the pan-caspase inhibitor” value ([9]; Q-VD-OPh 20 μM, WEHI-539 1.67 or 5 μM, ABT-263 0.33 or 1 μM, 3 days) was “increased” and the “senolytic activity in the presence of a caspase inhibitor” value ([9]; panCaspase inhibitor Q-VD-OPh) was “inhibited”. For the same molecule, the “restoration of wheel count reduction caused by chemotherapy treatment” value [10] was “approximately 70%” and the “cell growth / survival of non-senescent cells versus starting level” value [11] was “did not decrease the cell growth below the starting level”.
